Test results taken from US20250145665A1, “MACROCYCLIC PEPTIDES USEFUL AS MODULATORS OF TNF ALPHA” (Bristol-Myers Squibb Company, priority 2023, published 2025).
Starred links: 1 amine or outer side, 2 acyl side, 3 side chain; linkers in the order of their positions; H or OH if unused. Positions of bridges follow the written chain, without caps; N, C: chain ends. Non-standard residues stand in square brackets, D forms with d. Residues, ends and D or L forms follow the SMILES beside them. *: point of attachment. Bip(4'-NH) = O=C([C@H](Cc1ccc(-c2ccc(N[*:3])cc2)cc1)N[*:1])[*:2]; Indazole3carbonyl(1-CH2COOH) = O=C(O)Cn1nc(C(=O)*)c2ccccc21; Bip(4'-COOH) = N[C@@H](Cc1ccc(-c2ccc(C(=O)O)cc2)cc1)C(=O)O; Ala(morpholin-4-yl) = N[C@@H](CN1CCOCC1)C(=O)O; Phe(3-CONH2) = NC(=O)c1cccc(C[C@H](N)C(=O)O)c1; Bip = N[C@@H](Cc1ccc(-c2ccccc2)cc1)C(=O)O; Tiq1c(1S) = O=C(O)[C@H]1NCCc2ccccc21; X3 = O=C(O)c1cccc(Oc2ccccc2C(=O)*)c1; X48 = CC(C)(O)Cn1nc(C(=O)*)c2ccccc21; 2Pal = N[C@@H](Cc1ccccn1)C(=O)O; Tic = O=C(O)[C@@H]1Cc2ccccc2CN1; Cha = N[C@@H](CC1CCCCC1)C(=O)O; X20 = O=C(c1csc(-c2ccncc2)n1)*; Tle = CC(C)(C)[C@H](N)C(=O)O; Aze = O=C(O)[C@@H]1CCN1; Sar = CNCC(=O)O

The compounds below were run against TNFα (Homo sapiens, UniProt P01375) (assay: TNF-Induced HEK-Blue Assay). Conditions: not given.
Assay type: cell-based

Sequence of TNFα (P01375 77-233 limits assumed): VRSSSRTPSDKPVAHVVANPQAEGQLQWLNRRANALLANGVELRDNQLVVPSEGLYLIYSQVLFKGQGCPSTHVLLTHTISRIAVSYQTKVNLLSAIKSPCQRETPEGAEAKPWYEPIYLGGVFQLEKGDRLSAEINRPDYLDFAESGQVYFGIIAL

Compound	IC50 [nM]
CC(C)C[C@@H]1NC(=O)[C@H](CCCNC(=N)N)NC(=O)[C@H](C(C)C)NC(=O)[C@@H]2CCCN2C(=O)[C@H](C(C)C)NC(=O)[C@@H](CCCNC(=N)N)NC(=O)[C@H](CC(=O)O)NC(=O)[C@@H]2CCCN2C(=O)CN(C)C(=O)[C@H](Cc2ccc(-c3ccc(NC(=O)c4nn(CC(C)(C)O)c5ccccc45)cc3)cc2)NC(=O)[C@H](Cc2ccc(-c3ccccc3)cc2)NC(=O)[C@H](CN2CCOCC2)NC(=O)CSC[C@@H](C(=O)NCC(N)=O)NC1=O [Example 355] ({CH2CO}-[Ala(morpholin-4-yl)][Bip][Bip(4'-NH)](X48)[Sar]PD[dR]VPVRLCG-NH2; thioether N-13)	< 50
CC[C@H](C)[C@@H]1NC(=O)[C@@H]2CCCN2C(=O)[C@H]([C@@H](C)CC)NC(=O)[C@@H](CCCNC(=N)N)NC(=O)[C@H](CC(=O)O)NC(=O)[C@H](Cc2ccccn2)NC(=O)CN(C)C(=O)[C@H](Cc2ccc(-c3ccc(NC(=O)c4nn(CC(=O)O)c5ccccc45)cc3)cc2)NC(=O)[C@H](Cc2ccc(-c3ccccc3)cc2)NC(=O)[C@H](C(C)(C)C)NC(=O)CSC[C@@H](C(=O)NCC(N)=O)NC(=O)[C@H](CC(C)C)NC(=O)[C@H](Cc2cccc(C(N)=O)c2)NC1=O [Example 356] ({CH2CO}-[Tle][Bip][Bip(4'-NH)](Indazole3carbonyl(1-CH2COOH))[Sar][2Pal]D[dR]IPI[Phe(3-CONH2)]LCG-NH2; thioether N-13)	< 50
CC[C@H](C)[C@@H]1NC(=O)[C@@H]2CCN2C(=O)[C@H]([C@@H](C)CC)NC(=O)[C@@H](CCCNC(=N)N)NC(=O)[C@H](CC(=O)O)NC(=O)[C@H](Cc2ccc(O)cc2)NC(=O)CN(C)C(=O)[C@H](Cc2ccc(-c3ccc(NC(=O)c4nn(CC(=O)O)c5ccccc45)cc3)cc2)NC(=O)[C@H](Cc2ccc(-c3ccccc3)cc2)NC(=O)[C@H](C(C)(C)C)NC(=O)CSC[C@@H](C(=O)NCC(N)=O)NC(=O)[C@H](CC(C)C)NC(=O)[C@H](Cc2ccc(O)cc2)NC1=O [Example 357] ({CH2CO}-[Tle][Bip][Bip(4'-NH)](Indazole3carbonyl(1-CH2COOH))[Sar]YD[dR]I[Aze]IYLCG-NH2; thioether N-13)	50 to 200
CC[C@H](C)[C@@H]1NC(=O)[C@@H]2CCCN2C(=O)[C@H]([C@@H](C)CC)NC(=O)[C@@H](CCCNC(=N)N)NC(=O)[C@H](CC(=O)O)NC(=O)[C@H](Cc2ccccc2)NC(=O)CN(C)C(=O)[C@H](Cc2ccc(-c3ccc(NC(=O)c4nn(CC(=O)O)c5ccccc45)cc3)cc2)NC(=O)[C@H](Cc2ccc(-c3ccc(C(=O)O)cc3)cc2)NC(=O)[C@H](C(C)(C)C)NC(=O)CSC[C@@H](C(=O)NCC(N)=O)NC(=O)[C@H](CC(C)C)NC(=O)[C@H](Cc2cnc[nH]2)NC1=O [Example 359] ({CH2CO}-[Tle][Bip(4'-COOH)][Bip(4'-NH)](Indazole3carbonyl(1-CH2COOH))[Sar]FD[dR]IPIHLCG-NH2; thioether N-13)	< 50
CC[C@H](C)[C@@H]1NC(=O)[C@@H](CCCNC(=N)N)NC(=O)[C@H](CC(=O)O)NC(=O)[C@H](Cc2cnc[nH]2)NC(=O)CN(C)C(=O)[C@H](Cc2ccc(-c3ccc(NC(=O)c4nn(CC(=O)O)c5ccccc45)cc3)cc2)NC(=O)[C@H](Cc2ccc(-c3ccc(C(=O)O)cc3)cc2)NC(=O)[C@H](CC2CCCCC2)NC(=O)CSC[C@@H](C(=O)NCC(N)=O)NC(=O)[C@H](CC(C)C)NC(=O)[C@H](Cc2cnc[nH]2)NC(=O)[C@H](C(C)C)NC(=O)[C@@H]2c3ccccc3CCN2C1=O [Example 360] ({CH2CO}-[Cha][Bip(4'-COOH)][Bip(4'-NH)](Indazole3carbonyl(1-CH2COOH))[Sar]HD[dR]I[Tiq1c(1S)]VHLCG-NH2; thioether N-13)	< 50
CC[C@H](C)[C@@H]1NC(=O)[C@@H](CCCNC(=N)N)NC(=O)[C@H](CC(=O)O)NC(=O)[C@H](Cc2cnc[nH]2)NC(=O)CN(C)C(=O)[C@H](Cc2ccc(-c3ccc(NC(=O)c4nn(CC(=O)O)c5ccccc45)cc3)cc2)NC(=O)[C@H](Cc2ccc(-c3ccc(C(=O)O)cc3)cc2)NC(=O)[C@H](CC2CCCCC2)NC(=O)CSC[C@@H](C(=O)NCC(N)=O)NC(=O)[C@H](CC(C)C)NC(=O)[C@H](Cc2cnc[nH]2)NC(=O)[C@H](C(C)C)NC(=O)[C@@H]2Cc3ccccc3CN2C1=O [Example 361] ({CH2CO}-[Cha][Bip(4'-COOH)][Bip(4'-NH)](Indazole3carbonyl(1-CH2COOH))[Sar]HD[dR]I[Tic]VHLCG-NH2; thioether N-13)	< 50
CC(C)C[C@@H]1NC(=O)[C@H](Cc2ccccn2)NC(=O)[C@H](C(C)C)NC(=O)[C@@H]2CCCN2C(=O)[C@H](C(C)C)NC(=O)[C@@H](CCCNC(=N)N)NC(=O)[C@H](CC(=O)O)NC(=O)[C@H](Cc2ccc(O)cc2)NC(=O)CN(C)C(=O)[C@H](Cc2ccc(-c3ccc(NC(=O)c4nn(CC(=O)O)c5ccccc45)cc3)cc2)NC(=O)[C@H](Cc2ccc(-c3ccc(C(=O)O)cc3)cc2)NC(=O)[C@H](CC2CCCCC2)NC(=O)CSC[C@@H](C(=O)NCC(N)=O)NC1=O [Example 362] ({CH2CO}-[Cha][Bip(4'-COOH)][Bip(4'-NH)](Indazole3carbonyl(1-CH2COOH))[Sar]YD[dR]VPV[2Pal]LCG-NH2; thioether N-13)	< 50
CC(C)C[C@@H]1NC(=O)[C@H](Cc2ccc(O)cc2)NC(=O)[C@H](C(C)C)NC(=O)[C@@H]2CCCN2C(=O)[C@H](C(C)C)NC(=O)[C@@H](CCCNC(=N)N)NC(=O)[C@H](CC(=O)O)NC(=O)[C@@H]2CCCN2C(=O)CN(C)C(=O)[C@H](Cc2ccc(-c3ccc(NC(=O)c4nn(CC(=O)O)c5ccccc45)cc3)cc2)NC(=O)[C@H](Cc2ccc(-c3ccc(C(=O)O)cc3)cc2)NC(=O)[C@H](CC2CCCCC2)NC(=O)CSC[C@@H](C(=O)NCC(N)=O)NC1=O [Example 363] ({CH2CO}-[Cha][Bip(4'-COOH)][Bip(4'-NH)](Indazole3carbonyl(1-CH2COOH))[Sar]PD[dR]VPVYLCG-NH2; thioether N-13)	< 50

Same assay, conditions: HEK-Blue-CD40L cells, NF-kB-driven secreted alkaline phosphatase reporter; TNFα 0.5 ng/ml; 18 h; read-out: TNF induced HEK-Blue assay IC50 value

Compound	IC50 [nM]
CC[C@H](C)[C@@H]1NC(=O)[C@@H]2CCCN2C(=O)[C@H]([C@@H](C)CC)NC(=O)[C@@H](CCCNC(=N)N)NC(=O)[C@H](CC(=O)O)NC(=O)[C@H](Cc2ccccc2)NC(=O)CN(C)C(=O)[C@H](Cc2ccc(-c3ccc(NC(=O)c4csc(-c5ccncc5)n4)cc3)cc2)NC(=O)[C@H](Cc2ccc(-c3ccc(C(=O)O)cc3)cc2)NC(=O)[C@H](C(C)(C)C)NC(=O)CSC[C@@H](C(=O)NCC(N)=O)NC(=O)[C@H](CC(C)C)NC(=O)[C@H](Cc2cnc[nH]2)NC1=O [Example 353] ({CH2CO}-[Tle][Bip(4'-COOH)][Bip(4'-NH)](X20)[Sar]FD[dR]IPIHLCG-NH2; thioether N-13)	< 50
CC[C@H](C)[C@@H]1NC(=O)[C@@H](CCCNC(=N)N)NC(=O)[C@H](CC(=O)O)NC(=O)[C@H](Cc2cnc[nH]2)NC(=O)CN(C)C(=O)[C@H](Cc2ccc(-c3ccc(NC(=O)c4ccccc4Oc4cccc(C(=O)O)c4)cc3)cc2)NC(=O)[C@H](Cc2ccc(-c3ccccc3)cc2)NC(=O)[C@H](CC2CCCCC2)NC(=O)CSC[C@@H](C(=O)NCC(N)=O)NC(=O)[C@H](CC(C)C)NC(=O)[C@H](Cc2cnc[nH]2)NC(=O)[C@H](C(C)C)NC(=O)[C@@H]2CCCN2C1=O [Example 354] ({CH2CO}-[Cha][Bip][Bip(4'-NH)](X3)[Sar]HD[dR]IPVHLCG-NH2; thioether N-13)	50 to 200
